From patent US4269820A, “Safeguarded toxic chemical compositions containing effective emesis-inducing S-triazolo-[1,5-α]pyrimidine derivatives” (priority 1977, dated 1981)

What was measured:
[1] = Time to emesis and survival after oral administration of pesticide with or without emetic (Example 27, Table 1); assay type: in vivo, Macaca fascicularis (Cynomolgus monkeys); settings: for Animals in which emesis took place / Survival number after 14 days: 2 animals
in vivo = settings: cynomolgus monkey, po
[2] = in vivo; cited from earlier work
[3] = cited from earlier work

Structure (SMILES)	Animals in which emesis took place ([1]; Malathion only, 500 mg/kg)	Survival number after 14 days ([1]; Malathion only, 500 mg/kg)	LD50 (in vivo)	Time to emesis ([1]; Parathion only, 200 mg/kg)	Animals in which emesis took place ([1]; Parathion only, 200 mg/kg)	Survival number after 14 days ([1]; Parathion only, 200 mg/kg)	Side effects of known emetic [2]	Stability in air [3]
CCOC(=O)CC(SP(=S)(OC)OC)C(=O)OCC (stereo not drawn) [Malathion, S-[1,2-di(ethoxycarbonyl)ethyl] dimethyl phosphorothiolothionate]	1	0	270 to 400 mg/kg					
CCOP(=S)(OCC)Oc1ccc([N+](=O)[O-])cc1 [Parathion, diethyl 4-nitrophenyl phosphorothionate]			~100 mg/kg	1 h	1	0		
CN1CCc2cccc3c2[C@H]1Cc1ccc(O)c(O)c1-3 [apomorphine]							may induce protracted vomiting and shock	unstable in air, oxidising readily
